Experimental data published in US8558011B2, “Cold menthol receptor-1 antagonists” (Janssen Pharmaceutica, NV, priority 2010, dated 2013).

Biological target: T1, canine TRPM8 (Canis lupus familiaris, UniProt Q1A7N1)
T1 construct: expressed in transfected cells
Assay: In Vitro Canine TRPM8 Functional Assay (Ca2+-sensitive fluorescent dye, icilin activation, FLIPR/FDSS)
Assay type: cell-based
Settings: HEK293 cells stably expressing canine TRPM8, icilin activation; for IC50: eight-point dose-response; for % I (0.5 μM): compound at 0.5 μM; for % I (1 μM): compound at 1 μM
Experimental: The functional activity of compounds of Formula (I) was determined by measuring changes in intracellular calcium concentration using a Ca^2+-sensitive fluorescent dye. The changes in fluorescent signal were monitored by a fluorescence plate reader, either a FLIPR™ (Molecular Devices) or FDSS (Hamamatsu).
HEK293 cells stably expressing canine TRPM8 were routinely grown as monolayers in Dulbecco's minimum essential medium supplemented with 10% FBS, 1 mM L-glutamine, 100 units/mL penicillin, 100 ug/mL streptomycin and 400 μg/mL G418. Cells were maintained in 5% CO2 at 37° C. At 24 hrs prior to assay, cells were seeded in clear-base poly-D-lysine coated 384-well plates (BD Biosciences, NJ, USA) at a density of 5,000 cells per well in culture medium and grown overnight in 5% CO2 at 37° C. On assay day, growth media was removed and cells were loaded with Calcium 3 Dye (Molecular Devices) for 35 min at 37° C., under 5% CO2 and then for 25 min at room temperature and atmosphere. Subsequently, cells were tested for agonist-induced increases in intracellular Ca^2+ levels using FLIPR™ or FDSS. Cells were challenged with a compound of Formula (I) (at varying concentrations) and intracellular Ca^2+ was measured for 5 min prior to the addition of icilin to all wells to achieve a final concentration which produces approximately an 80% maximal response.
Basal FI was subtracted prior to normalizing data to percent of maximal response. Curves were generated using the average of quadruplicate wells for each data point, were analyzed using nonlinear regression of either sigmoidal dose response or sigmoidal dose response (variable slope). Finally, the EC50 and IC50 values were calculated with the best-fit dose curve determined by GraphPad Prism.

T1 sequence (Q1A7N1 1-1104): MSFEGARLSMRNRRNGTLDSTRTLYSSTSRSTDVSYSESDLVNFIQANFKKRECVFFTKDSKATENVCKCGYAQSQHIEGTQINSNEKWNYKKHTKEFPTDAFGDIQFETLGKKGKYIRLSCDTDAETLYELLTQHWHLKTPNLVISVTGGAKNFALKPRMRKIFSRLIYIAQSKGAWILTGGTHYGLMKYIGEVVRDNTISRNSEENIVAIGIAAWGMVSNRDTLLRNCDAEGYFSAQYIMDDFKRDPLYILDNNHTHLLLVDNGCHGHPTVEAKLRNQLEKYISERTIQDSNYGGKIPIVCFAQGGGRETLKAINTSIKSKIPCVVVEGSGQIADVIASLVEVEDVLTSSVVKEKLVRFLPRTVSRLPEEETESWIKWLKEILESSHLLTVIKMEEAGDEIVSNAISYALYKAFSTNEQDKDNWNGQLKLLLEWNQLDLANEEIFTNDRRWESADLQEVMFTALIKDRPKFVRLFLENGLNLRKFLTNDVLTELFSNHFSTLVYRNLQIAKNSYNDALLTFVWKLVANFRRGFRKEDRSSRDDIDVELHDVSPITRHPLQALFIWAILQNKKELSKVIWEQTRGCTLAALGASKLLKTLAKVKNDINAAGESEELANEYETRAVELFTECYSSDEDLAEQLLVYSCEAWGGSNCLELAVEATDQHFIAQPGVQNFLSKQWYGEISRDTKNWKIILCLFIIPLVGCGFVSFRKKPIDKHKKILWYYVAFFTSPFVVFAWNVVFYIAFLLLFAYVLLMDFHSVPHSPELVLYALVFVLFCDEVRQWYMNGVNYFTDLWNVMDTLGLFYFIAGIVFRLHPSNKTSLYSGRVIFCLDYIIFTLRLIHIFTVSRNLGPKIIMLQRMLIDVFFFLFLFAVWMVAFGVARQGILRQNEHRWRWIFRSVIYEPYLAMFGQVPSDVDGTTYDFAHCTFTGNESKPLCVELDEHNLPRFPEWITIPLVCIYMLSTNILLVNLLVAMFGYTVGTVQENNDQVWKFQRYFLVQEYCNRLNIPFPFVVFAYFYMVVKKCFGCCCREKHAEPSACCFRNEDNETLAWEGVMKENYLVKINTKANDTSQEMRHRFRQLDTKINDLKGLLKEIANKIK

Compound | IC50 [nM] | % I (0.5 μM) [%] | % I (1 μM) [%]
CCOP(=O)(OCC)C(Cc1ccc(F)c(F)c1)c1sc2ccccc2c1-c1ccsc1 (stereo not shown) [Cpd 208] | 104 | 104 | 
CCOP(=O)(OCC)C(Cc1ccc(SC(F)(F)F)cc1)c1sc2ccccc2c1Br (stereo not shown) [Cpd 153] | 43 | 103 | 
CCOP(=O)(OCC)C(Cc1ccc(F)c(F)c1)c1sc2cccc(F)c2c1C (stereo not shown) [Cpd 3, [2-(3,4-Difluoro-phenyl)-1-(4-fluoro-3-methyl-benzo[b]-thiophene-2-yl)-ethyl]-phosphonic acid diethyl ester] |  |  | 100
CC(C)OP(=O)(OC(C)C)C(Cc1cc(C(F)(F)F)cc(C(F)(F)F)c1)c1sc2ccccc2c1Cl (stereo not shown) [Cpd 171] | 221 | 95 | 
CC(C)OP(=O)(OC(C)C)C(Cc1ccc(Cl)c(F)c1)c1sc2ccccc2c1Cl (stereo not shown) [Cpd 302] | 79 | 103 | 
COc1ccc(CC(c2sc3ccccc3c2Br)P(=O)(OC(C)C)OC(C)C)cc1F (stereo not shown) [Cpd 159] | 36 | 103 | 
CCOP(=O)(OCC)C(Cc1cc(Cl)ccc1F)c1sc2ccccc2c1Br (stereo not shown) [Cpd 307] | 26 | 103 | 
CCOP(=O)(OCC)C(Cc1ccc(F)c(C(F)(F)F)c1)c1sc2cccc(F)c2c1Br (stereo not shown) [Cpd 223] | 52 | 102 | 
CCOP(=O)(OCC)C(Cc1ccc(F)c(F)c1)c1sc2ccccc2c1-c1ccccc1O (stereo not shown) [Cpd 215] | 85 | 101 | 
CCOP(=O)(OCC)C(Cc1c(F)c(F)c(OC)c(F)c1F)c1sc2ccccc2c1Br (stereo not shown) [Cpd 160] | 60 | 87 | 
COc1cc(CC(c2sc3ccccc3c2Br)P(=O)(OC(C)C)OC(C)C)ccc1F (stereo not shown) [Cpd 157] |  | 103 | 
CC(C)OP(=O)(OC(C)C)C(Cc1cc(F)cc(C(F)(F)F)c1)c1sc2ccccc2c1Cl (stereo not shown) [Cpd 169] | 96 | 104 | 
CCOP(=O)(OCC)C(Cc1cccc(C(F)(F)F)c1Cl)c1sc2ccccc2c1Cl (stereo not shown) [Cpd 280] | 227 | 101 | 
CCOP(=O)(OCC)C(Cc1cccc(F)c1F)c1sc2ccccc2c1C (racemic) [Cpd 10] | 43 |  | 100
CCOP(=O)(OCC)C(Cc1cc(C(F)(F)F)ccc1Cl)c1sc2ccccc2c1Br (stereo not shown) [Cpd 148] | 172 | 103 | 
CCOP(=O)(OCC)C(Cc1cccc(Cl)c1Cl)c1sc2ccccc2c1C (racemic) [Cpd 35] | 125 |  | 100
CC(C)OP(=O)(OC(C)C)C(Cc1ccccc1C(F)(F)F)c1sc2ccccc2c1Cl (stereo not shown) [Cpd 173] | 140 | 103 | 
COc1cc(CC(c2sc3ccccc3c2Br)P(=O)(OC(C)C)OC(C)C)c(F)cc1Cl (stereo not shown) [Cpd 165] | 86 | 102 | 
CCOP(=O)(OCC)C(Cc1ccc(F)c(Cl)c1)c1sc2ccccc2c1Cl (stereo not shown) [Cpd 297] | 40 | 103 | 
CCOP(=O)(OCC)C(Cc1ccc(F)c(F)c1)c1sc2ncccc2c1Br (stereo not shown) [Cpd 132, 1-[(3-Bromo-thieno[2,3-b]pyridin-2-yl)-2-(3,4-difluoro-phenyl)-ethyl]-phosphonic acid diethyl ester] |  |  | 102
CCOP(=O)(OCC)C(Cc1cc(OC)c(Cl)cc1F)c1sc2ccccc2c1Br (stereo not shown) [Cpd 164] | 82 | 94 | 
CCOP(=O)(OCC)C(Cc1ccc(C(F)(F)F)cc1)c1sc2ccccc2c1Br (stereo not shown) [Cpd 154] | 27 | 103 | 
COc1c(F)c(F)c(CC(c2sc3ccccc3c2Br)P(=O)(OC(C)C)OC(C)C)c(F)c1F (stereo not shown) [Cpd 161] | 19 | 103 | 
CCOP(=O)(OCC)C(Cc1ccc(F)c(F)c1)c1oc2ccccc2c1C (stereo not shown) [Cpd 9, [2-(3,4-Difluoro-phenyl)-1-(3-methyl-benzofuran-2-yl)-ethyl]-phosphonic acid diethyl ester] |  |  | 100
CC(C)OP(=O)(OC(C)C)C(Cc1cccc(O)c1F)c1sc2ccccc2c1Br (stereo not shown) [Cpd 230] | 10 | 97 | 
